Measured values published in patent US6841548B2, “Pharmaceutical preparations containing estra-1,3,5(10)-triene derivatives” (Schering AG, priority 1994, dated 2005).

Key:
ovariectomated rats [1] = experiment: Oral estrogenic effects: uterus weights in ovariectomated rats; type: in vivo, rat; settings: 10 μg/animal/day p.o. d1-d7
Source text: (§1) The laboratory animals, adult female rats (breeder: HSD/WIN:WU) were ovariectomated on day 14. Treatment started two weeks later by a single oral application per day of the respective test substance. The dosages given for esters refer to the steroid portion of the substances. The tests were made in three groups (A, B, C) at various points in time. This is why there is a deviation in control group values. The tests of series A, B, and C can therefore be compared among each other if the values for the respective control groups are taken into account.
(§2) The procedure of allocating animals to groups was randomized. The experiment was carried out as a block test. The animals were weighed at the beginning and at the end of the experiment.
(§3) The start of treatment was defined as day 1 (=d1), treatment was finished on day 7 (=d7); the animals were killed on day 8, various organs (uteri, adrenal glands, liver) were removed, weighed and deep-frozen (−196° C.) for further examination.

ovariectomated rats [2] = experiment: Oral estrogenic effects: weights of adrenal glands in ovariectomated rats; type: in vivo, rat; settings: 10 μg/animal/day p.o. d1-d7
Source text: as §1, §2, §3

SMILES	Uterus weights (mean value) (ovariectomated rats [1]; Experiment B)	Weights of adrenal glands (mean value) (ovariectomated rats [2]; Experiment B)	Uterus weights (mean value) (ovariectomated rats [1]; Experiment C)	Weights of adrenal glands (mean value) (ovariectomated rats [2]; Experiment C)
C#CC1(O)CCC2C3CCc4cc(OS(=O)(=O)N5CCCC5)ccc4C3CCC21C (stereo not drawn) [J 272, 17β-Hydroxy-19-nor-17α-pregna-1,3,5(10)-trien-20-in-3-yl N,N-pyrrolidinosulfonate]	620.7 mg	57.5 mg		
CCN(CC)S(=O)(=O)Oc1ccc2c(c1)CC[C@@H]1[C@@H]2CC[C@]2(C)C(=O)CC[C@@H]12 [J 804, Estra-1,3,5(10)-trien-17-on-3-yl N,N-diethyl-sulfamate]	166.0 mg	53.9 mg		
CN(C)S(=O)(=O)Oc1ccc2c(c1)CC[C@@H]1[C@@H]2CC[C@]2(C)[C@@H](O)C[C@@H]3C[C@]312 [J 982, 17β-Hydroxy-14α,15α-methylen-estra-1,3,5(10)-trien-3-yl N,N-dimethyl-sulfamate]	193.4 mg	55.3 mg		
C[C@]12CC[C@@H]3c4ccc(O)cc4CC[C@H]3[C@@H]1C[C@@H](O)[C@@H]2O [Example E3, estratriol]			301.94 mg	52.2 mg
CCN(CC)S(=O)(=O)Oc1ccc2c(c1)CC[C@@H]1[C@@H]2CC[C@]2(C)[C@@H](O)C[C@@H]3C[C@]312 [J 983, 17β-Hydroxy-14α,15α-methylen-estra-1,3,5(10)-trien-3-yl N,N-diethyl-sulfamate]	348.6 mg	53.9 mg		
C#CC1(O)CCC2C3CCc4cc(OS(=O)(=O)N(C)C)ccc4C3CCC21C (stereo not drawn) [J 665, 17β-Hydroxy-19-nor-17α-pregna-1,3,5(10)-trien-20-in-3-yl N,N-dimethyl-sulfamate]	639.48 mg	58.0 mg		
